# Reference: patent publication US5604253A, “N-benzylindol-3-yl propanoic acid derivatives as cyclooxygenase inhibitors” (priority 1995, dated 1997)
# Like-named read-outs stand apart in the source and are kept apart here.
# What was measured:
# Rat Paw Edema = test: Rat paw edema assay (carrageenan); assay type: in vivo, Sprague-Dawley rat
# Protocol: Male Sprague-Dawley rats (150-200 g) are fasted overnight and are given po either vehicle (1% methocel or 5% Tween 80) or a test compound. One hr later, a line is drawn using a permanent marker at the level above the ankle in one hind paw to define the area of the paw to be monitored. The paw volume (V0) is measured using a plethysmometer (Ugo-Basile, Italy) based on the principle of water displacement. The animals are then injected subplantarly with 50 μl of 1% carrageenan solution in saline (FMC Corp, Maine) into the paw using an insulin syringe with a 25-gauge needle (i.e., 500 μg carrageenan per paw). Three hr later, the paw volume (V3) is measured and the increases in paw volume (V3 -V0) are calculated. The animals are sacrificed by CO2 asphyxiation and the absence or presence of stomach lesions scored. Data is compared with the vehicle-control values and percent inhibition calculated. All treatment groups are coded to eliminate observer bias.
# cyclooxygenase-1 = cyclooxygenase-1 (Homo sapiens, UniProt P23219); test: cell-based; details: PGE2 production, human U-937 cells, 10 μM arachidonic acid; read-out: Cox-1 IC50
# Protocol: (§1) Compounds were tested as inhibitors of cyclooxygenase activity in whole cell cyclooxygenase assays. Both of these assays measured prostaglandin E2 synthesis in response to arachidonic acid, using a radioimmunoassay. Cells used for these assays were human osteosarcoma 143 cells (which specifically express cyclooxygenase-2) and human U-937 cells (which specifically express cyclooxygenase-1). In these assays, 100% activity is defined as the difference between prostaglandin E2 synthesis in the absence and presence of arachidonate addition.
# (§2) For cyclooxygenase assays, osteosarcoma cells are cultured in 1 mL of media in 24-well multidishes (Nunclon) until confluent (1-2×10^5 cells/well). U-937 cells are grown in spinner flasks and resuspended to a final density of 1.5×10^6 cells/mL in 24-well multidishes (Nunclon). Following washing and resuspension of osteosarcoma and U-937 cells in 1 mL of Hanks balanced salts solution (HBSS), 2 μL of a DMSO solution of test compound or DMSO vehicle is added, and samples gently mixed. All assays are performed in triplicate. Samples are then incubated for 5 or 15 minutes at 37° C., prior to the addition of arachidonic acid. Arachidonic acid (peroxide-free, Cayman Chemical) is prepared as a 10 mM stock solution in ethanol and further diluted 10-fold in HBSS. An aliquot of 10 μL of this diluted solution is added to the cells to give a final arachidonic acid concentration of 10 μM. Control samples are incubated with ethanol vehicle instead of arachidonic acid. Samples are again gently mixed and incubated for a further 10 min at 37° C. For osteosarcoma cells, reactions are then stopped by the addition of 100 μL of 1N HCl, with mixing and by the rapid removal of the solution from cell monolayers. For U-937 cells, reactions are stopped by the addition of 100 μL of 1N HCl, with mixing. Samples are then neutralized by the addition of 100 μL of 1N NaOH and PGE2 levels measured by radioimmunoassay.
# (§3) In the assay, inhibition is determined by measuring the amount of prostaglandin E2 (PGE2) synthesized in the presence of arachidonic acid, cyclooxygenase-1 or cyclooxygenase-2 and a putative inhibitor.
# cyclooxygenase-2 = molecular target: T1, cyclooxygenase-2 (Homo sapiens, UniProt P35354); test: cell-based; details: PGE2 production, human osteosarcoma 143 cells, 10 μM arachidonic acid; read-out: Cox-2 IC50
# T1 sequence (P35354 18-604): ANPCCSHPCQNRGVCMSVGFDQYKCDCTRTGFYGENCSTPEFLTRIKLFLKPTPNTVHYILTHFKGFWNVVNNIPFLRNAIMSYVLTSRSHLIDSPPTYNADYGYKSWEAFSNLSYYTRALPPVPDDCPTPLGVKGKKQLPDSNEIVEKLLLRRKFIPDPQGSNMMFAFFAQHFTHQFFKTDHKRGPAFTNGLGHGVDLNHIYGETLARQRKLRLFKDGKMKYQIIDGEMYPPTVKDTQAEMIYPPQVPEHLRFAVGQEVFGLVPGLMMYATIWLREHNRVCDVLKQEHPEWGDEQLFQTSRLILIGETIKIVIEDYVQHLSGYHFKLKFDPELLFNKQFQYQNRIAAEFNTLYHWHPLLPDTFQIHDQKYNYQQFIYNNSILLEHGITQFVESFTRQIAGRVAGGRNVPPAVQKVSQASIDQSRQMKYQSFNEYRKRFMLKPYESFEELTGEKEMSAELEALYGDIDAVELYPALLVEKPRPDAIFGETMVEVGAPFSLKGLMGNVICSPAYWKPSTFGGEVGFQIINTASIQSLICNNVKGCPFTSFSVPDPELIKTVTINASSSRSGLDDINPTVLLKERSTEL
# Protocol: as §1, §2, §3
# [1] = edema inhibition, rat, po 1 hr before carrageenan, paw volume at 3 hr, read-out: ED30
# cyclooxygenase-1, sequence (P23219 24-599): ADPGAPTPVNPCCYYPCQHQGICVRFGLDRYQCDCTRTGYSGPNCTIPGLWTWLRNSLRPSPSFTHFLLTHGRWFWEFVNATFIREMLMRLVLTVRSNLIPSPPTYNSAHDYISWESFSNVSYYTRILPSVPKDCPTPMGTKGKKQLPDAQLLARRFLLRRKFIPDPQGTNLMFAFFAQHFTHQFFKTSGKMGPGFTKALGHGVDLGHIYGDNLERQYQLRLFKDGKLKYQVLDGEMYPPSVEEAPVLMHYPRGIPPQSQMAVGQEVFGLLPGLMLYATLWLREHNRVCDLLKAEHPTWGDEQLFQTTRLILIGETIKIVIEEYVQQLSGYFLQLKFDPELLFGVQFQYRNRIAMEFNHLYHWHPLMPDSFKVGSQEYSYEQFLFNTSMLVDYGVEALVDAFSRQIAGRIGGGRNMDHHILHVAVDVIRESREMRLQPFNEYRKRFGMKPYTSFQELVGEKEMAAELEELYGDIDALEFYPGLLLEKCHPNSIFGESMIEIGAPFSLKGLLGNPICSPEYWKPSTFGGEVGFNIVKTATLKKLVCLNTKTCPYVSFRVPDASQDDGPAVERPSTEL
SMILES,ED30 (Rat Paw Edema; [1]) [mg/kg],IC50 (cyclooxygenase-1) [nM],IC50 (cyclooxygenase-2) [nM],"ED30 (Rat Paw Edema; Rattus norvegicus, po, 3 h) [mg/kg]"
"COc1ccc2c(c1)c(C(C)C(=O)O)c(C)n2Cc1ccc(Cl)cc1 (stereo not drawn) [MK-555, α-(1-p-chlorobenzyl-2-methyl-5-methoxy-3-indolyl)propionic acid, reference compound]",3,,,
"COc1ccc2c(c1)c(CC(=O)O)c(C)n2C(=O)c1ccc(Cl)cc1 [Indomethacin, reference compound]",0.9,,,
COc1ccc2c(c1)c(C(C)CC(=O)[O-])c(C)n2Cc1ccc(Br)cc1.[Na+] (racemic) [sodium salt],,> 10000,4,
COc1ccc2c(c1)c(C(C)CC(=O)[O-])c(C)n2Cc1ccc(Br)cc1.[Na+] (racemic),,,,0.7
COc1ccc2c(c1)c([C@@H]1C[C@H]1C(=O)[O-])c(C)n2Cc1ccc(Br)cc1.[Na+] (relative stereo),,,,0.6
COc1ccc2c(c1)c([C@@H]1C[C@H]1C(=O)[O-])c(C)n2Cc1ccc(Br)cc1.[Na+] (relative stereo) [sodium salt],,> 10000,46,
